These results are taken from PubChem BioAssay AID463204 (Broad Institute, 2010).

In this assay the test system is S. cerevisiae Mot1-301 ts growth rescue, BacTiter-Glo ATP luminescence. In words: growth rescue of Mot1-301 ts yeast, confirmation, SUMOylation pathway inhibitor project, whole organism, S. cerevisiae, Mot1-301 ts mutant, luminescence, dose retest (AID 463204).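 Note: growth at restrictive 38.5 degrees C of Mot1-301 OY566 strain; actives raise luminescence by restoring growth of the ts mutant at high temperature.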

The source made the active and inactive calls.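 Rule for the calls: active = AC50 no more than ten times the top concentration tested, that is within one log above it; inconclusive = flat curve fit with activity between 30% and 70%, or invalid poor fit; inactive = AC50 beyond ten times the top tested dose.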 A value given as a limit tells only on which side of the number the result lay.

The term AC50 denotes the concentration at which the activity in the assay is half-maximal. Consider `CCS(=O)c1ccccc1C(=O)O` (stereo not given), for which the AC50 was > 42 µM (inactive). `Nc1nc2ccccc2cc1-c1cccs1`: the AC50 is > 42 µM (inactive). On to `CCCCCC(=O)Nc1ccc(-c2csc(N)n2)cc1`, for which the AC50 was > 42 µM (inactive). As to `Cc1cccc(N2CCN(C(=O)CN3C(=O)NC(C)(C)C3=O)CC2)c1C`, the AC50 is > 42 µM (inactive). As for `Cc1sc2ncnc(Nc3ccccc3)c2c1C`, the figure is 29.7 µM; as for `COc1ccc(N2CCN(C(c3cccs3)C(C)NS(C)(=O)=O)CC2)cc1` (stereo not given), > 42 µM (inactive); as for `O=C(NC1CCCC1)C(c1cccs1)N(C(=O)c1ccno1)c1ccccc1` (stereo not given), > 42 µM (inactive). The same measure for `Cc1ccc(S(=O)(=O)NC2CCCCCCC2)cc1`: 18.1 µM. Take `Cc1nnsc1C(=O)N1CCC(CO)(Cc2ccccc2Cl)CC1`: the AC50 is > 42 µM (inactive). Take `O=C(NC(=S)NNC(=O)c1ccccc1O)c1cccc([N+](=O)[O-])c1`: the AC50 is > 42 µM (inactive). As for `CN(C=O)CP(=O)(O)CN(C)C=O`, the figure is > 42 µM (inactive); as for `Cc1cc(C(F)F)n2ncc(C(=O)NCCc3ccc(Cl)cc3)c2n1`, > 42 µM (inactive); as for `CC(=O)Oc1cccc(N2C(=O)c3ccc(C(=O)Nc4c[nH]c(=O)[nH]c4=O)cc3C2=O)c1`, > 42 µM (inactive). As for `Cc1ccc(NS(=O)(=O)c2cc(C(=O)Nc3cccc([N+](=O)[O-])c3)ccc2C)cc1`, the figure is > 42 µM (inactive); as for `COc1ccc(CN2CCN(C(=O)c3cc(-c4cccnc4)nc4ccc(Cl)cc34)CC2)c(OC)c1OC`, > 42 µM (inactive).

In the case of `O=C(c1ccncc1)N(Cc1ccccc1)Cc1nc2ccccc2c(=O)[nH]1`, the AC50 is > 42 µM (inactive). As for `Cc1nn(C)c(Cl)c1CN1CCN(CCC(C)C)C(CCO)C1` (stereo not given), the figure is > 42 µM (inactive); as for `COc1ccccc1NC(=O)c1ccc(-n2ccnc2)c([N+](=O)[O-])c1`, > 42 µM (inactive). As for `O=C(Nc1ccc(Cl)cc1)C1=Cc2ccccc2OC1`, the figure is 40.9 µM; as for `COCCCNC(=O)c1cc(C(=O)c2c(-c3c(Cl)cccc3Cl)noc2C)c[nH]1`, > 42 µM (inactive); as for `Cc1cc(/C=C2\C(=O)NC(=O)N(c3ccccc3F)C2=O)c(C)n1-c1cc(C(=O)O)cc(C(=O)O)c1`, > 42 µM (inactive).

Regarding `S=c1[nH]nc(-c2ccco2)n1-c1ccc(Br)cc1`, the AC50 is > 42 µM (inactive). As for `COc1ccccc1C(=O)OCC(=O)NC(=O)NCc1ccccc1`, the figure is > 42 µM (inactive); as for `CCOC(=O)c1sc(NC(=O)CSc2n[nH]c(-c3ccccc3)n2)c(C#N)c1C`, 20.6 µM; as for `CCOc1ccc(N(C(=O)C2CCCO2)C2C=CS(=O)(=O)C2)cc1` (stereo not given), > 42 µM (inactive). As for `CN(C)S(=O)(=O)c1ccc(C(=O)/C=C/c2cccnc2)cc1`, the figure is > 42 µM (inactive); as for `S=C(NCCc1c[nH]c2ccccc12)NC1CC1`, > 42 µM (inactive); as for `CCOC(=O)c1cc([N+](=O)[O-])c([N+](=O)[O-])cc1NC(C)=O`, 8.71 µM. As for `O=C(CCNC(=O)c1ccccc1)Nc1cccnc1`, the figure is > 42 µM (inactive). Take `CCCOc1ccc(N2C(=O)CC(N3CCC(C(=O)OCC)CC3)C2=O)cc1` (stereo not given): the half-maximal activity concentration (AC50) was 13.1 µM.

For the compound `CC1(C(=O)Nc2cccc(-n3cnnn3)c2)Cc2ccccc2C(=O)O1` (stereo not given), the AC50 was > 42 µM (inactive). As for `CC(=O)Nc1ccccc1C(=O)C(=O)Nc1ccc(C(=O)NCC2CCCO2)cc1` (stereo not given), the figure is > 42 µM (inactive); as for `COc1ccc(NC(=O)CCC(=O)Nc2nnc(C(F)(F)F)s2)c(OC)c1`, > 42 µM (inactive). As for `CCOC(=O)NNC(=O)CCn1c2c(c3ccccc31)CCCC2`, the figure is > 42 µM (inactive); as for `COc1cc(C(=O)Nc2sc3c(c2C(=O)O)CCC(C)C3)cc(OC)c1OC` (stereo not given), > 42 µM (inactive); as for `CCn1nc(CC(=O)Nc2ccc(-n3cnnn3)c(C)c2)c2ccccc2c1=O`, > 42 µM (inactive). The same measure for `CCOc1ccccc1N(CC(=O)Nc1ccccc1C(=O)N1CCCC1)S(C)(=O)=O`: > 42 µM (inactive); for `O=C1NC(=O)N(Cc2ccccc2)C1=O`: > 42 µM (inactive); for `CCCCC(=O)Nc1cc(OC)c(NC(=O)C2CCCCC2)cc1OC`: > 42 µM (inactive). On to `Cc1ccn2cc(-c3cnoc3C)nc2c1`, for which the AC50 is > 42 µM (inactive). Regarding `Cc1nc(NCCN2CCOCC2)c2nnn(Cc3c(F)cccc3Cl)c2n1`, the AC50 is > 42 µM (inactive). The same measure for `COc1ccc(C2C3=C(CC(C)(C)CC3=O)Nc3n[nH]c(C)c32)cc1` (stereo not given): > 42 µM (inactive); for `COc1cc(C(=O)NCCC2=CCCCC2)cc(OC)c1OC`: > 42 µM (inactive). As for `CCCCn1c(N)c(N(CC(C)C)C(=O)c2cc(-c3ccc(F)cc3)nc3ccccc23)c(=O)[nH]c1=O`, the figure is > 42 µM (inactive); as for `COc1ccc(NC2CC(=O)N(C(C)C)C2=O)cc1` (stereo not given), > 42 µM (inactive); as for `O=C(CN1C(=O)NC2(CCCC2)C1=O)Nc1nc2ccccc2[nH]1`, > 42 µM (inactive). The same measure for `Cc1[nH]oc(=O)c1N=Nc1c(Cl)cccc1Cl`: 6.02 µM. As to `Cc1ccc(F)cc1NS(=O)(=O)c1ccc(Cl)s1`, the AC50 is 22.2 µM.

On to `Cc1ccc(N(CC(=O)NCCc2ccc(Cl)cc2)S(=O)(=O)c2c(C)noc2C)cc1`, for which the AC50 is > 42 µM (inactive).

Regarding `O=C(CCc1ccccc1)NNC(=S)Nc1ccc(F)cc1`, the AC50 was > 42 µM (inactive). As for `CCOc1ccc(NC(=O)Nc2ccc3nsnc3c2)cc1`, the AC50 is > 42 µM (inactive). As for `O=C(CSc1cccc[n+]1[O-])N1CCc2ccccc21`, the AC50 was > 42 µM (inactive).

Take `CCCOC(=O)c1c(-c2ccc(OC)cc2)oc2ccc(-c3ccc(OC)nc3)cc12`: the AC50 is > 42 µM (inactive). The same measure for `CCOC(=O)N1CCN(C(=O)CNC(=O)c2nn(-c3ccc(OC)c(OC)c3)c(=O)c3ccccc23)CC1`: > 42 µM (inactive); for `O=C(Nc1ccccn1)c1ccc(CN(c2ccccc2)S(=O)(=O)c2ccccc2)cc1`: > 42 µM (inactive); for `COc1cccc(NC(=O)CN2CCN(c3ccccc3F)CC2)c1`: 39.1 µM.

Consider `COc1cc(OC)c(C(=O)N2CCN(c3ccccn3)CC2)cc1OC`, for which the AC50 is > 42 µM (inactive). As for `O=C(O)COc1ccc(=O)n(-c2ccccc2)n1`, the figure is > 42 µM (inactive). The same measure for `CCOc1ccc(C(C(=O)NC2CCCC2)N(C(=O)c2snc(C(N)=O)c2N)C2CCCC2)cc1` (stereo not given): 42 µM; for `O=C(NC1CCCCC1)c1ccc2c(=O)n(CC3CCCO3)c(=O)[nH]c2c1` (stereo not given): > 42 µM (inactive); for `COc1ccc(C2CC(c3cccs3)=NN2C(=O)c2ccccc2)cc1OC` (stereo not given): > 42 µM (inactive). As for `Cc1ccc(CC2CC(=O)N(c3ccc4c(c3)OCCO4)C2=O)cc1` (stereo not given), the figure is > 42 µM (inactive); as for `CCOc1ccc(C)cc1S(=O)(=O)n1nc(C)cc1C`, > 42 µM (inactive); as for `COC(=O)Nc1ccc(S(=O)(=O)N2CCCC(C(=O)NC3CCS(=O)(=O)C3)C2)cc1` (stereo not given), > 42 µM (inactive).

For `Cc1cc(C)c(S(=O)(=O)NCC(c2cccnc2)N2CCN(Cc3ccccc3)CC2)c(C)c1` (stereo not given), the AC50 is > 42 µM (inactive). The same measure for `COc1ccc(NC(=O)CN(C)C(=O)c2cc(C)on2)cc1`: > 42 µM (inactive); for `N#Cc1c(Cn2cncn2)nc(=O)n(-c2ccc(Cl)cc2)c1N`: > 42 µM (inactive). The same measure for `CCN(CC)c1nc2c(c(=O)[nH]c(=O)n2C)n1CCOc1ccccc1`: > 42 µM (inactive); for `Cc1ccccc1NC1=NCCCS1`: > 42 µM (inactive).

Turning to `Cc1nc2c(-c3ccc(F)cc3)cnn2c2c1CCC2`, the AC50 was > 42 µM (inactive). On to `COc1ccc(N=Cc2c(O)n(C)c(=O)[nH]c2=O)cc1`, for which the AC50 was > 42 µM (inactive). Take `COc1ccccc1CNc1ncnc2nc[nH]c12`: the AC50 is > 42 µM (inactive).

In the case of `COc1ccc(NC(=O)CN(C)C(=O)/C=C/c2cn(-c3ccccc3)nc2-c2ccc(C)cc2)cc1`, the AC50 was > 42 µM (inactive). As for `COC(=O)c1ccccc1NC(NC(=O)c1ccco1)C(=O)c1ccccc1` (stereo not given), the figure is > 42 µM (inactive); as for `CSc1cccc(NC(=S)N2CCCN(Cc3ccccc3F)C2)c1`, > 42 µM (inactive). `CCN(CC)C(=O)Cn1cc(S(=O)(=O)CC(=O)NCCc2ccc(OC)c(OC)c2)c2ccccc21`: the AC50 was > 42 µM (inactive).

For the compound `Nc1nnc(CC(=O)N2CCCCC2)s1`, the AC50 is > 42 µM (inactive). As for `CN1C(=O)NC(=O)[C@]2(Cc3ccccc3N3CCN(c4ccccc4)CC32)C1=O` (stereo not given in full), the figure is > 42 µM (inactive); as for `CC1(C)CCc2cc(CN3CCN(c4ccccn4)CC3)ccc2O1`, > 42 µM (inactive).

For `Cc1nc2ccc(NC(=O)c3ccco3)cc2s1`, the AC50 was > 42 µM (inactive). As for `Cc1c(N=Cc2cc(Br)cc(Br)c2O)cccc1C(=O)O`, the figure is 3.14 µM; as for `COc1ccc(OC)c(N(CC(=O)N2CCCC2)S(=O)(=O)c2ccccc2)c1`, > 42 µM (inactive). As for `COc1ccc(CCNC(=O)C/C(C)=N/NC(=O)COc2ccc(C)cc2Br)cc1OC`, the figure is > 42 µM (inactive); as for `O=c1[nH]c(=O)n(C2CCCO2)cc1Br` (stereo not given), > 42 µM (inactive); as for `CC(=O)c1ccc(Nc2cc(C)nc3ccccc23)cc1`, > 42 µM (inactive). The same measure for `O=C(/C=C/NNC(=O)c1ccc(Br)cc1)c1ccccc1`: > 42 µM (inactive). `C=CCNC(=O)c1onc(CSc2cccc(C)c2)c1C(=O)O`: the AC50 is > 42 µM (inactive). The same measure for `O=C(O)CCc1ccc(-c2cccs2)n1NC(=O)c1cccs1`: > 42 µM (inactive); for `Cc1nc(CSc2nnc3scc(-c4ccccc4)n23)cs1`: > 42 µM (inactive); for `CCc1ccc(NC(=O)N2CCC(c3ccccc3)C2)cc1` (stereo not given): > 42 µM (inactive).
